Biological target: AgrC-I (Staphylococcus aureus, UniProt Q309Y8)
Assay: reverse autokinase kinetics, Michaelis-Menten
Assay type: biochemical
Conditions: reverse reaction from pre-phosphorylated AgrC-I discs; without AIP

Nc1ncnc2c1ncn2[C@@H]1O[C@H](COP(=O)(O)OP(=O)(O)O)[C@@H](O)[C@H]1O [ADP]
Km: the Km for ADP was lower while the kmax was higher than the forward reaction

Source: article PMC4004102 (Molecular cell, 2014)
